# In patent US8198273B2, “Compounds and methods for kinase modulation, and indications therefor” (Plexxikon Inc., priority 2009, dated 2012):
# Tests used:
# [1] = test system: SW620 colon adenocarcinoma cells (wild-type B-RAF); experiment: SW620 cell growth inhibition (ATPlite); assay type: cell-based; conditions: Homo sapiens, SW-620, 72 h; SW620, 3 days incubation
# Method: (§1) Compounds are assessed in a variety of cell based assays. For example human cell lines with B-Raf V600E mutation (A375 melanoma, SKMEL3 melanoma, and COL0205 colon adenocarcinoma), as well as tumorigenic cell lines with wild-type B-RAF (SW620 colon adenocarcinoma) or with Ras mutations (SKMEL2 melanoma and IPC298 melanoma). Similar assays may be used to assess additional tumorigenic cell lines with Ras mutations, including, but not limited to, M202, M207, M243, M244, M296, S117, HCT116, HCT15, DLD1, MiaPaCa, A549, NCI-H23, NCI-H460, HOP62, MDA-MB231, Hs-578T, HL60, MOLT-4, and CCRF-CEM.
# (§2) On day 1, cells are counted, then centrifuged in a conical tube for 5 minutes at 1000 rpm. The supernatant is removed and cells are re-suspended as follows: • SW620 (ATCC catalog #CCL-27): resuspend in Leibovitz's L-15 medium, 2 mM L-glutamine, 10% fetal bovine serum to 6×10^4 cells/mL. • A375 (ATCC catalog #CRL-1619): resuspend in Dulbecco's modified Eagle's medium, 4 mM L-glutamine, 4.5 g/L D-glucose, 10% fetal bovine serum to 6×10^4 cells/mL. • COL0205 (ATCC catalog #CCL-222): resuspend in RPMI 1640, 2 mM L-glutamine, 1.5 g/L sodium bicarbonate, 4.5 g/L D-glucose, 10 mM HEPES, 1.0 mM sodium pyruvate, 10% fetal bovine serum to 6×10^4 cells/mL. • SKMEL2 (ATCC catalog #HTB-68): resuspend in Minimum Eagle essential medium, 2 mM L-glutamine, 1.5 g/L sodium bicarbonate, 0.1 mM non-essential amino acids, 1.0 mM sodium pyruvate, 10% fetal bovine serum to 6×10^4 cells/mL. • SKMEL3 (ATCC catalog #HTB-69): resuspend in McCoy's 5A medium, 1.5 mM L-glutamine, 15% fetal bovine serum to 6×10^4 cells/mL. • IPC298 (DSMZ catalog #ACC 251): resuspend in RPMI 1640, 2 mM L-glutamine, 10% fetal bovine serum to 6×10^4 cells/mL.
# (§3) The cells are plated, 50 μL in each well of a 96-well dish (Corning 3610) and incubated at 37° C. in 5% CO2 overnight, cells plated to a final concentration of cells as follows:
# (§4) On day 2, compound at a maximum concentration of 5 mM is serially diluted 1:3 for a total of 8 point titration with DMSO as a control. A 1 μL aliquot of each dilution point and control is added to 249 μL growth media and 50 μL is added to a well containing cells, providing 10 μM compound at the maximum concentration point. The cells are incubated for 3 days at 37° C. in 5% CO2.
# (§5) On day 5, ATPlite 1 step Luminescence Assay System (Perkin Elmer #6016739) is brought to room temperature along with the cell cultures. ATPlite is added 25 μL to each well, shake for 2 minutes, and the cells are incubated at room temperature for 10 minutes, then luminescence is read on Safire reader. The measured luminescence correlates directly with cell number, such that the reading as a function of compound concentration is used to determine the IC50 value.
# (§6) It is understood that the results of these assays may vary as assay conditions are varied. Inhibition levels determined under the conditions described herein represent a relative activity for the compounds tested under the specific conditions employed. The cell based assays are likely to show variability due to the complexity of the system and the sensitivity thereof to any changes in the assay conditions. […] Results for compounds that are tested and show substantially no inhibition below the highest tested concentration are represented as “-” in the tables below. In some instances, the compounds were not tested in all of the assays, or assay results were not valid, as indicated by NA in the tables below.
# [2] = test system: COLO205 colon adenocarcinoma cells (B-Raf V600E); experiment: COLO205 cell growth inhibition (ATPlite); assay type: cell-based; conditions: Homo sapiens, COLO 205, 72 h; COLO205, 3 days incubation
# Method: as §1, §2, §3, §4, §5, §6
# B-Raf V600E = B-Raf V600E (Homo sapiens, UniProt P15056, V600E); experiment: B-Raf V600E biochemical kinase inhibition (AlphaScreen, biotin-MEK1 substrate); conditions: 100 μM ATP
# Sequence of B-Raf V600E (P15056 whole entry V600E): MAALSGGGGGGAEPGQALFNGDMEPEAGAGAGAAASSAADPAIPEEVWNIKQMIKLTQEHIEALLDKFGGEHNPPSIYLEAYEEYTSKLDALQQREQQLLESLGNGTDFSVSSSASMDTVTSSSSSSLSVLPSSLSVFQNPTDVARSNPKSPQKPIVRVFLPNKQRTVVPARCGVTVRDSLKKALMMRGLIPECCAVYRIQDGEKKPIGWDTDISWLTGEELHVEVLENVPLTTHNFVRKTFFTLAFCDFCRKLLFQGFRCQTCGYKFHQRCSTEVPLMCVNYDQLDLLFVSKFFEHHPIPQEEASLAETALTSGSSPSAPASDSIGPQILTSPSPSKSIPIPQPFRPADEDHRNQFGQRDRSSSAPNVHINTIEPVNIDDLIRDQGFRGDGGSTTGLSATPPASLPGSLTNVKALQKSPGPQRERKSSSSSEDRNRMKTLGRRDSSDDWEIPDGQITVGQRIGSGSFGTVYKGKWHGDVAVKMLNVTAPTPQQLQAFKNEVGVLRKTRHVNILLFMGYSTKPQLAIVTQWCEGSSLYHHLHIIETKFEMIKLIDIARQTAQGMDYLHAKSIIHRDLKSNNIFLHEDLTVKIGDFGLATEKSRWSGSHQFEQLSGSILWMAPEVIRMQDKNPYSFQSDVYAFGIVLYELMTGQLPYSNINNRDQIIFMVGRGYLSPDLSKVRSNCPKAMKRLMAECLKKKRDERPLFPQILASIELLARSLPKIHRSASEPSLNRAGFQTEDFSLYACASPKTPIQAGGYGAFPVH
# Method: (§7) Compounds to be tested are diluted in dimethyl sulfoxide to a concentration of 0.1 mM. These are serially diluted 15 μL into 30 μL of dimethyl sulfoxide seven times in 96 well plates for a total of 8 dilution points, and for each dilution point 1 μL is added to a well of an assay plate. […] The reaction is started with addition of 10 μL of 200 μM ATP (i.e. final 100 μM ATP). […] The plates are incubated for 3 hours at room temperature and read on Envision reader (Perkin Elmer). […] The signal vs. compound concentration is used to determine the IC50.
# [3] = test system: A375 melanoma cells (B-Raf V600E); experiment: A375 cell growth inhibition (ATPlite); assay type: cell-based; conditions: Homo sapiens, A-375, 72 h; A375, 3 days incubation
# Method: as §1, §2, §3, §4, §5, §6
# [4] = test system: SKMEL2 melanoma cells (Ras mutation); experiment: SKMEL2 cell growth inhibition (ATPlite); assay type: cell-based; conditions: Homo sapiens, SK-MEL-2, 72 h; SKMEL2, 3 days incubation
# Method: as §1, §2, §3
# SKMEL2: 2,000 cells per well.
# as §4, §5, §6
# B-Raf = B-Raf (Homo sapiens, UniProt P15056); experiment: B-Raf biochemical kinase inhibition (AlphaScreen, biotin-MEK1 substrate); conditions: 100 μM ATP
# Sequence of B-Raf (P15056 whole entry): as the sequence (P15056 whole entry V600E) above, with E600V counted along it
# Method: as §7
# A-Raf = molecular target: T1, A-Raf (Homo sapiens, UniProt P10398); experiment: A-Raf biochemical kinase inhibition (AlphaScreen, biotin-MEK1 substrate); conditions: 100 μM ATP
# T1 sequence (P10398 1-606): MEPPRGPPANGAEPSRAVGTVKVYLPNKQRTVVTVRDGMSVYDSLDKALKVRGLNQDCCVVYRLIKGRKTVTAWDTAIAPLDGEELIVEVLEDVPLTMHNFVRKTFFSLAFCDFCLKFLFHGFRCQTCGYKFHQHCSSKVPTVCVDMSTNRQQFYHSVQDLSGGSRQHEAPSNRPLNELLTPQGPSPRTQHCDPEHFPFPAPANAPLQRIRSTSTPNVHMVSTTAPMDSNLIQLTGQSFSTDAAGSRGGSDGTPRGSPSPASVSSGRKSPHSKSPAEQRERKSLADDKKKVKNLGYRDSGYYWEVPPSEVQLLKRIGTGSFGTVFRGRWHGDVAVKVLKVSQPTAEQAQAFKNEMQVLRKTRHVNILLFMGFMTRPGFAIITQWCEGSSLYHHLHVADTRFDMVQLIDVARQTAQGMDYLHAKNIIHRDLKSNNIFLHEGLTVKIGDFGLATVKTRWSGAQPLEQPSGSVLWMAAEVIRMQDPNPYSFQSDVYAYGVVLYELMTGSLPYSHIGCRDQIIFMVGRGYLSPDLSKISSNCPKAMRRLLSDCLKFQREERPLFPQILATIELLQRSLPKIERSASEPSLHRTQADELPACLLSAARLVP
# Method: as §7
# c-Raf-1 = c-Raf-1 (Homo sapiens, UniProt P04049); experiment: c-Raf-1 biochemical kinase inhibition (AlphaScreen, biotin-MEK1 substrate); conditions: 100 μM ATP
# Sequence of c-Raf-1 (P04049 whole entry): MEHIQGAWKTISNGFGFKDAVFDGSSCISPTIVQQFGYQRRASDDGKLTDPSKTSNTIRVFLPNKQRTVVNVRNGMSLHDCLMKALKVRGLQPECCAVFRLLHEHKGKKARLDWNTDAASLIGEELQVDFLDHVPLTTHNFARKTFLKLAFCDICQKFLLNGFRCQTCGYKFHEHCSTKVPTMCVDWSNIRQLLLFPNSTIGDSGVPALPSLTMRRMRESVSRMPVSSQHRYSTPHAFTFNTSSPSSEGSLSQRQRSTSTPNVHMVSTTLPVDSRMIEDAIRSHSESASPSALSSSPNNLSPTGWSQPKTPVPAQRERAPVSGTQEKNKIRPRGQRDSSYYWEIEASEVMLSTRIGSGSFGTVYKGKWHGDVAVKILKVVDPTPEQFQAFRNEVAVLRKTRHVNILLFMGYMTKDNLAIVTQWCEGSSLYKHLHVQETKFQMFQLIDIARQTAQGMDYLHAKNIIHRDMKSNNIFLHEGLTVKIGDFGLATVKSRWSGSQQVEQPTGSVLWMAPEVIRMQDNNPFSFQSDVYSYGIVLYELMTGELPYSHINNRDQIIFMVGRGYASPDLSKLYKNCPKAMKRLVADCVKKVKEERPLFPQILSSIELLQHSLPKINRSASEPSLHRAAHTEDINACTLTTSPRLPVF
# Method: as §7
SMILES,IC50 [1],IC50 [2],IC50 (B-Raf V600E),IC50 [3],IC50 [4],IC50 (B-Raf),IC50 (A-Raf),IC50 (c-Raf-1)
"CCCS(=O)(=O)Nc1ccc(F)c(C(=O)c2c[nH]c3ncc(-c4ccc(NC(C)=O)cc4)cc23)c1F [P-2161, N-(4-{3-[2,6-Difluoro-3-(propane-1-sulfonylamino)-benzoyl]-1H-pyrrolo[2,3-b]pyridin-5-yl}-phenyl)-acetamide]",> 10000 nM,< 1000 nM,< 10 nM,< 1000 nM,< 10000 nM,–,–,–
"CC(C)CS(=O)(=O)Nc1ccc(F)c(C(=O)c2c[nH]c3ncc(-c4cnn(C)c4)cc23)c1F [P-2299, 2-Methyl-propane-1-sulfonic acid {2,4-difluoro-3-[5-(1-methyl-1H-pyrazol-4-yl)-1H-pyrrolo[2,3-b]pyridine-3-carbonyl]-phenyl}-amide]",> 10000 nM,< 1000 nM,< 10 nM,< 1000 nM,> 10000 nM,< 10 nM,–,–

# More lines, now with the values ahead:
IC50 [1],IC50 [2],IC50 (B-Raf V600E),IC50 [3],IC50 [4],IC50 (B-Raf),IC50 (A-Raf),IC50 (c-Raf-1),SMILES
< 10000 nM,< 1000 nM,< 100 nM,< 1000 nM,< 5000 nM,< 100 nM,–,–,"CCCS(=O)(=O)Nc1ccc(F)c(C(=O)c2c[nH]c3ncc(-c4ccc(C)nc4F)cc23)c1F [P-2172, Propane-1-sulfonic acid {2,4-difluoro-3-[5-(2-fluoro-6-methyl-pyridin-3-yl)-1H-pyrrolo[2,3-b]pyridine-3-carbonyl]-phenyl}-amide]"
> 10000 nM,< 1000 nM,< 100 nM,< 1000 nM,–,< 100 nM,< 10 nM,< 100 nM,"CCCS(=O)(=O)Nc1ccc(F)c(C(=O)c2c[nH]c3ncc(-c4ccc(C(N)=O)nc4)cc23)c1F [P-2220, 5-{3-[2,6-Difluoro-3-(propane-1-sulfonylamino)-benzoyl]-1H-pyrrolo[2,3-b]pyridin-5-yl}-pyridine-2-carboxylic acid amide]"
> 10000 nM,< 5000 nM,< 10 nM,< 5000 nM,> 10000 nM,< 10 nM,< 10 nM,< 10 nM,"CCCS(=O)(=O)Nc1ccc(F)c(C(=O)c2c[nH]c3ncc(-c4ccc(O)nc4)cc23)c1F [P-2234, Propane-1-sulfonic acid {2,4-difluoro-3-[5-(6-hydroxy-pyridin-3-yl)-1H-pyrrolo[2,3-b]pyridine-3-carbonyl]-phenyl}-amide]"
